Test results: article PMC5218480 (PLoS ONE, 2017)

Tested on: MV-4-11 cells
Assay: Gene expression microarray analysis (Affymetrix PrimeView) and GSEA
Type: cell-based, human
Set-up: RFU PODN (11730768_x_at) / Fold change /veh PODN (11730768_x_at) / RFU LINC00158 (11744669_a_at) / Fold change /veh LINC00158 (11744669_a_at) / RFU DUSP10 (11751237_a_at) / Fold change /veh DUSP10 (11751237_a_at) / RFU ID3 (11757404_x_at) / Fold change /veh ID3 (11757404_x_at) / RFU PLEKHG5 (11737974_s_at) / Fold change /veh PLEKHG5 (11737974_s_at) / RFU LRRC4B (11730491_at) / Fold change /veh LRRC4B (11730491_at) / RFU GIMAP4 (11747438_a_at) / Fold change /veh GIMAP4 (11747438_a_at) / RFU KRT8 (11758183_x_at) / Fold change /veh KRT8 (11758183_x_at) / RFU CNN1 (11734310_a_at) / Fold change /veh CNN1 (11734310_a_at) / RFU VPS37D (11726825_at) / Fold change /veh VPS37D (11726825_at) / RFU C10orf10 (11716522_x_at) / Fold change /veh C10orf10 (11716522_x_at) / RFU KIR2DL2 /// KIR2DL4 /// KIR2DL5A /// KIR2DL5B /// KIR2DS1 /// KIR2DS2 /// KIR2DS3 /// KIR2DS4 /// KIR3DL3 /// KIR3DL3 /// KIR3DS1 (11738374_at) / Fold change /veh KIR2DL2 /// KIR2DL4 /// KIR2DL5A /// KIR2DL5B /// KIR2DS1 /// KIR2DS2 /// KIR2DS3 /// KIR2DS4 /// KIR3DL3 /// KIR3DL3 /// KIR3DS1 (11738374_at) / RFU C1QL1 (11718748_at) / Fold change /veh C1QL1 (11718748_at) / RFU TMPRSS4 (11747572_a_at) / Fold change /veh TMPRSS4 (11747572_a_at) / RFU HAMP (11756126_x_at) / Fold change /veh HAMP (11756126_x_at) / RFU RNFT2 (11725882_a_at) / Fold change /veh RNFT2 (11725882_a_at) / RFU NR4A2 (11747474_a_at) / Fold change /veh NR4A2 (11747474_a_at) / RFU ABCC12 (11746883_a_at) / Fold change /veh ABCC12 (11746883_a_at) / RFU TMEM136 (11760407_x_at) / Fold change /veh TMEM136 (11760407_x_at) / RFU CLDN22 /// WWC2 (11732394_at) / Fold change /veh CLDN22 /// WWC2 (11732394_at) / RFU HLA-DPB1 (11760878_x_at) / Fold change /veh HLA-DPB1 (11760878_x_at) / RFU SPINT1 (11716480_a_at) / Fold change /veh SPINT1 (11716480_a_at) / RFU GAP43 (11754022_s_at) / Fold change /veh GAP43 (11754022_s_at) / RFU A4GNT (11735810_at) / Fold change /veh A4GNT (11735810_at) / RFU PRB3 (11715151_x_at) / Fold change /veh PRB3 (11715151_x_at) / RFU TUBB4B (11761932_at) / Fold change /veh TUBB4B (11761932_at) / RFU CAPN14 (11732068_a_at) / Fold change /veh CAPN14 (11732068_a_at) / RFU TMCC2 (11721928_a_at) / Fold change /veh TMCC2 (11721928_a_at) / RFU IRGQ (11745062_a_at) / Fold change /veh IRGQ (11745062_a_at) / RFU FAM174B (11720279_a_at) / Fold change /veh FAM174B (11720279_a_at) / RFU TMPRSS4 (11748680_a_at) / Fold change /veh TMPRSS4 (11748680_a_at) / RFU FAM212B (11763350_a_at) / Fold change /veh FAM212B (11763350_a_at) / RFU PLEKHG5 (11743358_a_at) / Fold change /veh PLEKHG5 (11743358_a_at) / RFU ZSCAN30 (11745921_a_at) / Fold change /veh ZSCAN30 (11745921_a_at) / RFU CMKLR1 (11741424_a_at) / Fold change /veh CMKLR1 (11741424_a_at) / RFU LOC101060620 /// MAPK8IP1 (11723275_at) / Fold change /veh LOC101060620 /// MAPK8IP1 (11723275_at) / RFU SPTSSB (11747773_x_at) / Fold change /veh SPTSSB (11747773_x_at) / RFU PRSS12 (11739890_at) / Fold change /veh PRSS12 (11739890_at) / RFU BIN1 (11741810_x_at) / Fold change /veh BIN1 (11741810_x_at) / RFU WNT11 (11732464_a_at) / Fold change /veh WNT11 (11732464_a_at) / RFU C10orf10 (11716521_a_at) / Fold change /veh C10orf10 (11716521_a_at) / RFU C5orf56 (11738089_at) / Fold change /veh C5orf56 (11738089_at) / RFU CYB561 (11721691_x_at) / Fold change /veh CYB561 (11721691_x_at) / RFU ANKRD19P (11752326_a_at) / Fold change /veh ANKRD19P (11752326_a_at) / RFU OR2T12 /// OR2T33 /// OR2T8 (11738714_s_at) / Fold change /veh OR2T12 /// OR2T33 /// OR2T8 (11738714_s_at) / RFU VCAN (11748164_a_at) / Fold change /veh VCAN (11748164_a_at) / RFU JSRP1 (11732532_at) / Fold change /veh JSRP1 (11732532_at) / RFU KRTAP10-11 (11738290_x_at) / Fold change /veh KRTAP10-11 (11738290_x_at) / RFU MYO3A (11730013_a_at) / Fold change /veh MYO3A (11730013_a_at) / RFU EBF3 (11725865_a_at) / Fold change /veh EBF3 (11725865_a_at) / RFU CAMK2N1 (11719241_x_at) / Fold change /veh CAMK2N1 (11719241_x_at) / RFU C5orf56 (11738088_a_at) / Fold change /veh C5orf56 (11738088_a_at) / RFU OLFML3 (11715873_a_at) / Fold change /veh OLFML3 (11715873_a_at) / RFU LOC100653217 /// NTM (11731650_a_at) / Fold change /veh LOC100653217 /// NTM (11731650_a_at) / RFU MAPK11 (11762145_a_at) / Fold change /veh MAPK11 (11762145_a_at) / RFU FIZ1 (11724087_x_at) / Fold change /veh FIZ1 (11724087_x_at) / RFU OASL (11726364_x_at) / Fold change /veh OASL (11726364_x_at) / RFU SOX15 (11748057_x_at) / Fold change /veh SOX15 (11748057_x_at) / RFU CD79A (11719716_a_at) / Fold change /veh CD79A (11719716_a_at) / RFU HIST1H1D (11736915_at) / Fold change /veh HIST1H1D (11736915_at) / RFU CASKIN2 (11723855_a_at) / Fold change /veh CASKIN2 (11723855_a_at) / RFU LOC730098 (11760151_x_at) / Fold change /veh LOC730098 (11760151_x_at) / RFU OR4N2 (11742367_at) / Fold change /veh OR4N2 (11742367_at) / RFU PRRT2 (11749266_a_at) / Fold change /veh PRRT2 (11749266_a_at) / RFU SNX32 (11753110_a_at) / Fold change /veh SNX32 (11753110_a_at) / RFU CDHR5 (11726645_a_at) / Fold change /veh CDHR5 (11726645_a_at) / RFU RCAN1 (11760418_a_at) / Fold change /veh RCAN1 (11760418_a_at) / RFU FAM167A (11723789_a_at) / Fold change /veh FAM167A (11723789_a_at) / RFU FAM26E (11764081_at) / Fold change /veh FAM26E (11764081_at) / RFU ISYNA1 (11749810_s_at) / Fold change /veh ISYNA1 (11749810_s_at) / RFU ACY1 (11761880_at) / Fold change /veh ACY1 (11761880_at) / RFU 11764098_at / Fold change /veh 11764098_at / RFU SAMD14 (11745864_x_at) / Fold change /veh SAMD14 (11745864_x_at) / RFU NPB (11741838_a_at) / Fold change /veh NPB (11741838_a_at) / RFU TMPRSS6 (11731388_a_at) / Fold change /veh TMPRSS6 (11731388_a_at) / RFU KRTAP10-2 (11738614_at) / Fold change /veh KRTAP10-2 (11738614_at) / RFU ARHGAP8 /// PRR5-ARHGAP8 (11727945_x_at) / Fold change /veh ARHGAP8 /// PRR5-ARHGAP8 (11727945_x_at) / RFU KRTAP5-7 /// NADSYN1 (11734609_at) / Fold change /veh KRTAP5-7 /// NADSYN1 (11734609_at) / RFU RASL12 (11751679_a_at) / Fold change /veh RASL12 (11751679_a_at) / RFU CDKN2B (11736163_a_at) / Fold change /veh CDKN2B (11736163_a_at) / RFU PRF1 (11729649_at) / Fold change /veh PRF1 (11729649_at) / RFU, ZNF638 /// ZNF638-IT1 / Fold change vs veh, ZNF638 /// ZNF638-IT1 / RFU, PANK3 / Fold change vs veh, PANK3 / RFU, SH3YL1 / Fold change vs veh, SH3YL1 / RFU, ZEB2 / Fold change vs veh, ZEB2 / RFU, NRIP1 / Fold change vs veh, NRIP1 / RFU, PTTG1IP / Fold change vs veh, PTTG1IP / RFU, CAPN2 / Fold change vs veh, CAPN2 / RFU, MED14 / Fold change vs veh, MED14 / RFU, SNORA58 / Fold change vs veh, SNORA58 / RFU, C1orf63 / Fold change vs veh, C1orf63 / RFU, LRRFIP1 / Fold change vs veh, LRRFIP1 / RFU, NDUFAF7 / Fold change vs veh, NDUFAF7 / RFU, SLC12A2 / Fold change vs veh, SLC12A2 / RFU, IBTK / Fold change vs veh, IBTK / RFU, ESF1 / Fold change vs veh, ESF1 / Fold change vs veh, TMEM50B / RFU, TAOK1 / Fold change vs veh, TAOK1 / RFU, ACBD3 / Fold change vs veh, ACBD3 / RFU, TMA16 / Fold change vs veh, TMA16 / RFU, RWDD3 / Fold change vs veh, RWDD3 / RFU, BCAT1 / Fold change vs veh, BCAT1 / RFU, EDEM3 / Fold change vs veh, EDEM3 / RFU, TMEM33 / Fold change vs veh, TMEM33 / RFU, WDR75 / Fold change vs veh, WDR75 / RFU, AHCTF1 / Fold change vs veh, AHCTF1 / RFU, TFRC / Fold change vs veh, TFRC / RFU, ZDHHC17 / Fold change vs veh, ZDHHC17 / RFU, NOM1 / Fold change vs veh, NOM1 / RFU, ARL8B / Fold change vs veh, ARL8B / RFU, ZBTB11 / Fold change vs veh, ZBTB11 / RFU, TAMM41 / Fold change vs veh, TAMM41 / RFU, KIAA1704 /// LOC100996395 / Fold change vs veh, KIAA1704 /// LOC100996395 / RFU, ING1 / Fold change vs veh, ING1 / RFU, TRMT61B / Fold change vs veh, TRMT61B / RFU, FUBP3 / Fold change vs veh, FUBP3 / RFU, TP53 / Fold change vs veh, TP53 / RFU, TNKS2 / Fold change vs veh, TNKS2 / RFU, ZFP14 / Fold change vs veh, ZFP14 / RFU, ACTR2 / Fold change vs veh, ACTR2 / RFU, PPP3R1 / Fold change vs veh, PPP3R1 / RFU, PIK3R1 / Fold change vs veh, PIK3R1 / RFU, HNRNPA1 / Fold change vs veh, HNRNPA1 / RFU, RNF170 / Fold change vs veh, RNF170 / RFU, ZNF28 / Fold change vs veh, ZNF28 / RFU, RNGTT / Fold change vs veh, RNGTT / RFU, OGT / Fold change vs veh, OGT / RFU, BRD1 / Fold change vs veh, BRD1 / RFU, MARS / Fold change vs veh, MARS / RFU, ZNF655 / Fold change vs veh, ZNF655 / RFU, FAHD1 / Fold change vs veh, FAHD1 / RFU, BDP1 / Fold change vs veh, BDP1 / RFU, LRRCC1 / Fold change vs veh, LRRCC1 / RFU, ARID1A / Fold change vs veh, ARID1A / RFU, ZNF146 / Fold change vs veh, ZNF146 / RFU, ZNF330 / Fold change vs veh, ZNF330 / RFU, GPN3 / Fold change vs veh, GPN3 / RFU, C9orf123 / Fold change vs veh, C9orf123 / RFU, N4BP2L2 / Fold change vs veh, N4BP2L2 / RFU, ARFIP1 / Fold change vs veh, ARFIP1 / RFU, FAM179B / Fold change vs veh, FAM179B / RFU, BCL10 / Fold change vs veh, BCL10 / RFU, UHRF1BP1L / Fold change vs veh, UHRF1BP1L / RFU, BET1 / Fold change vs veh, BET1 / RFU, CNOT2 / Fold change vs veh, CNOT2 / RFU, ZNF268 / Fold change vs veh, ZNF268 / Fold change vs veh, ZNF507 / RFU, DGCR2 / Fold change vs veh, DGCR2 / RFU, WDSUB1 / Fold change vs veh, WDSUB1 / Fold change vs veh, HSP90B1 /// MIR3652 / RFU, ADSS / Fold change vs veh, ADSS / RFU, GK / Fold change vs veh, GK / RFU, ZNF148 / Fold change vs veh, ZNF148 / RFU, TAF9 / Fold change vs veh, TAF9 / RFU, SLC1A5 / Fold change vs veh, SLC1A5 / RFU, SLMO2 / Fold change vs veh, SLMO2 / RFU, ABCC4 / Fold change vs veh, ABCC4 / RFU, LOC101060439 /// RAP1B / Fold change vs veh, LOC101060439 /// RAP1B / RFU, RFX7 / Fold change vs veh, RFX7 / RFU, GTPBP10 / Fold change vs veh, GTPBP10 / RFU, CNEP1R1 / Fold change vs veh, CNEP1R1 / RFU, BIVM-ERCC5 /// ERCC5 / Fold change vs veh, BIVM-ERCC5 /// ERCC5 / RFU, ILF3 / Fold change vs veh, ILF3 / RFU 11762660_at / Fold change /veh 11762660_at / RFU VCAN (11757783_s_at) / Fold change /veh VCAN (11757783_s_at) / RFU DDX43 (11728927_at) / Fold change /veh DDX43 (11728927_at) / RFU KRT8 (11758188_x_at) / Fold change /veh KRT8 (11758188_x_at) / RFU NKD1 (11759106_at) / Fold change /veh NKD1 (11759106_at) / RFU SRD5A1 (11742802_a_at) / Fold change /veh SRD5A1 (11742802_a_at) / RFU TPSAB1 /// TPSB2 (11721975_s_at) / Fold change /veh TPSAB1 /// TPSB2 (11721975_s_at) / RFU GSTM3 (11746129_a_at) / Fold change /veh GSTM3 (11746129_a_at) / RFU IL23R (11737362_x_at) / Fold change /veh IL23R (11737362_x_at) / RFU TMEM51 (11727254_a_at) / Fold change /veh TMEM51 (11727254_a_at) / RFU PIWIL2 (11732686_x_at) / Fold change /veh PIWIL2 (11732686_x_at) / RFU ORM1 (11744905_x_at) / Fold change /veh ORM1 (11744905_x_at) / RFU CCDC152 (11743942_at) / Fold change /veh CCDC152 (11743942_at) / RFU ECM1 (11717891_a_at) / Fold change /veh ECM1 (11717891_a_at) / RFU IL23R (11748794_a_at) / Fold change /veh IL23R (11748794_a_at) / RFU TNFAIP8L3 (11732012_x_at) / Fold change /veh TNFAIP8L3 (11732012_x_at) / RFU MBOAT4 (11741988_at) / Fold change /veh MBOAT4 (11741988_at) / RFU 11764193_at / Fold change /veh 11764193_at / RFU TMEM53 (11763286_at) / Fold change /veh TMEM53 (11763286_at) / RFU MAGEB2 (11727129_at) / Fold change /veh MAGEB2 (11727129_at) / RFU TMEM200A (11744735_a_at) / Fold change /veh TMEM200A (11744735_a_at) / RFU CCDC152 (11751479_a_at) / Fold change /veh CCDC152 (11751479_a_at) / RFU FAM211A (11726209_a_at) / Fold change /veh FAM211A (11726209_a_at) / RFU RGS16 (11746705_a_at) / Fold change /veh RGS16 (11746705_a_at) / RFU VCAN (11755009_s_at) / Fold change /veh VCAN (11755009_s_at) / RFU RHOB (11743442_s_at) / Fold change /veh RHOB (11743442_s_at) / RFU RGS16 (11720943_a_at) / Fold change /veh RGS16 (11720943_a_at) / RFU RGS16 (11720944_at) / Fold change /veh RGS16 (11720944_at) / RFU, VPS4B / Fold change vs veh, VPS4B / RFU, CREB1 / Fold change vs veh, CREB1 / RFU, DNAJC13 / Fold change vs veh, DNAJC13 / RFU, GNAQ / Fold change vs veh, GNAQ / RFU, CDK5R1 / Fold change vs veh, CDK5R1 / RFU, ZRANB3 / Fold change vs veh, ZRANB3 / RFU, CUL4A / Fold change vs veh, CUL4A / RFU, CCNY / Fold change vs veh, CCNY / RFU, UFL1 / Fold change vs veh, UFL1 / RFU, COG3 / Fold change vs veh, COG3 / RFU, DIAPH2 / Fold change vs veh, DIAPH2 / RFU, SKA2 / Fold change vs veh, SKA2 / RFU, AFF3 / Fold change vs veh, AFF3 / RFU, LMF1 / Fold change vs veh, LMF1 / RFU, IPO11 / Fold change vs veh, IPO11 / RFU, DFFB / Fold change vs veh, DFFB / RFU, FOXP1 / Fold change vs veh, FOXP1 / RFU, CARD8 / Fold change vs veh, CARD8 / RFU, STRN3 / Fold change vs veh, STRN3 / RFU, ADK / Fold change vs veh, ADK / RFU, RASSF2 / Fold change vs veh, RASSF2 / RFU, WIPF1 / Fold change vs veh, WIPF1 / RFU, LARP1B / Fold change vs veh, LARP1B / RFU, RASA1 / Fold change vs veh, RASA1 / RFU, RB1 / Fold change vs veh, RB1 / RFU, PPFIA1 / Fold change vs veh, PPFIA1 / RFU, MAT2A / Fold change vs veh, MAT2A / RFU, CCT5 / Fold change vs veh, CCT5 / RFU, WDR92 / Fold change vs veh, WDR92 / RFU, CUX1 / Fold change vs veh, CUX1 / RFU, TTC7A / Fold change vs veh, TTC7A / RFU, TMEM135 / Fold change vs veh, TMEM135 / RFU, DEPTOR / Fold change vs veh, DEPTOR / RFU, CPM / Fold change vs veh, CPM / RFU, DNAJB6 / Fold change vs veh, DNAJB6 / RFU, CACNA2D3 / Fold change vs veh, CACNA2D3 / RFU, DTX4 / Fold change vs veh, DTX4 / RFU, TFCP2 / Fold change vs veh, TFCP2 / RFU, GMCL1 /// GMCL1P1 / Fold change vs veh, GMCL1 /// GMCL1P1 / RFU, AEBP2 / Fold change vs veh, AEBP2 / RFU, SNHG1 /// SNORD22 /// SNORD25 /// SNORD26 /// SNORD27 /// SNORD28 /// SNORD29 /// SNORD31 / Fold change vs veh, SNHG1 /// SNORD22 /// SNORD25 /// SNORD26 /// SNORD27 /// SNORD28 /// SNORD29 /// SNORD31 / Fold change (Aza/veh), C12orf56 (ProbeSet 11735607_a_at) / Fold change (ACY-1035/veh), C12orf56 (ProbeSet 11735607_a_at) / Fold change (Aza/veh), FGFR1OP (ProbeSet 11751329_s_at) / Fold change (ACY-1035/veh), FGFR1OP (ProbeSet 11751329_s_at) / Fold change (Aza/veh), VPS36 (ProbeSet 11739960_a_at) / Fold change (ACY-1035/veh), VPS36 (ProbeSet 11739960_a_at) / RFU SYPL1 (11715823_x_at) / Fold change /veh SYPL1 (11715823_x_at) / RFU IGFBP7 (11715501_s_at) / Fold change /veh IGFBP7 (11715501_s_at) / RFU REEP3 (11722064_at) / Fold change /veh REEP3 (11722064_at) / RFU IGLL1 (11728026_x_at) / Fold change /veh IGLL1 (11728026_x_at): dose or concentration left out as unconfirmed
Conditions: MV-4-11 cells, 48 hours

Nc1ccc(-c2cccs2)cc1NC(=O)c1ccc2c(c1)cc(C1CC1)n2CCN1CCOCC1 [ACY-1035]
Fold change /veh 11762660_at: 0.98
